# Data reported in PubChem BioAssay (NCI).
# Several values for one entry are separate records, joined by “and”; a condition that tells them apart may be missing. Equal entries are not always repeated.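 Interpolation was linear, between the two tested concentrations surrounding the appropriate level; five concentrations were tested over 48 hours in 96-well plates. GI50 = concentration required for 50% inhibition of growth. TGI: total growth inhibition.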
# Experiments:
# Test in all cases: inhibition of tumour cell growth, NCI panel, 48 h
# [1] = tested on: EKVX NSCLC
# [2] = tested on: HOP-92 NSCLC
# [3] = tested on: COLO 205 colon
# [4] = tested on: U251 CNS
# [5] = tested on: SK-MEL-28 melanoma
# [6] = tested on: MDA-MB-231 breast
# [7] = tested on: UO-31 renal
# [8] = tested on: IGROV1 ovarian
# [9] = tested on: LOX IMVI melanoma
# [10] = tested on: SF-539 CNS
# [11] = tested on: NCI-H460 lung
# [12] = tested on: SNB-19 CNS
# [13] = tested on: A498 renal
# [14] = tested on: NCI-H226 lung
# [15] = tested on: MALME-3M melanoma
# [16] = tested on: RXF-631 renal
# [17] = tested on: LXFL 529 NSCLC
# [18] = tested on: TK-10 renal
# [19] = tested on: SK-MEL-5 melanoma
# [20] = tested on: SNB-75 CNS
# [21] = tested on: UACC-257 melanoma
# [22] = tested on: BT-549 breast
# [23] = tested on: OVCAR-3 ovarian
# [24] = tested on: HT29 colon
# [25] = tested on: OVCAR-4 ovarian
# [26] = tested on: KM20L2 colon
# [27] = tested on: SF-295 CNS
# [28] = tested on: NCI-H522 lung
# [29] = tested on: 786-0 renal
# [30] = tested on: SN12C renal
# [31] = tested on: HCT-15 colon
# [32] = tested on: NCI-H23 lung
# [33] = tested on: MCF7 breast
# [34] = tested on: CAKI-1 renal
# [35] = tested on: T-47D breast
# [36] = tested on: HCC-2998 colon
# [37] = tested on: CCRF-CEM leukemia
# [38] = tested on: SF-268 CNS
# [39] = tested on: M19-MEL melanoma
# [40] = tested on: SK-MEL-2 melanoma
# [41] = tested on: ACHN renal
# [42] = tested on: SNB-78 CNS
# [43] = tested on: A549 NSCLC
# [44] = tested on: M14 melanoma
# [45] = tested on: RPMI-8226 leukemia
# [46] = tested on: OVCAR-8 ovarian
# [47] = tested on: OVCAR-5 ovarian
# [48] = tested on: XF 498 CNS
# [49] = tested on: KM12 colon
# [50] = tested on: RXF 393 renal
# [51] = tested on: PC-3 prostate
# [52] = tested on: MOLT-4 leukemia
# [53] = tested on: DLD-1 colon
# [54] = tested on: DMS 114 small cell lung
# [55] = tested on: NCI/ADR-RES ovarian
# [56] = tested on: HS 578T breast
# [57] = tested on: SK-OV-3 ovarian
# [58] = tested on: SW-620 colon
# [59] = tested on: HL-60(TB) leukemia
# [60] = tested on: DU-145 prostate
# [61] = tested on: HCT-116 colon
# [62] = tested on: DMS 273 small cell lung
# [63] = tested on: SR leukemia
# [64] = tested on: UACC-62 melanoma
# [65] = tested on: K-562 leukemia
# [66] = tested on: MDA-N
# [67] = tested on: HOP-62 NSCLC
# [68] = tested on: MDA-MB-435
compound,measurement,setting,value
CCN(CC)CCCC(C)Nc1c2ccc(Cl)cc2nc2ccc(OC)cc12 (centres undefined),GI50,[1],2.09 µM
same,TGI,[1],7.29 µM and 13.3 µM
same,GI50,[2],0.811 µM
same,TGI,[2],3.17 µM and 2.53 µM
same,TGI,[3],3.11 µM and 7.34 µM
same,GI50,[4],1.89 µM
same,TGI,[4],4.1 µM and 3.39 µM
same,GI50,[5],2.27 µM
same,TGI,[5],4.4 µM and 3.1 µM
same,GI50,[6],0.968 µM
same,GI50,[7],1.52 µM
same,TGI,[7],3.12 µM and 5.49 µM
same,GI50,[8],3.21 µM
same,TGI,[8],13.2 µM and 5.49 µM
same,GI50,[9],1.52 µM
same,TGI,[9],3.56 µM and 2.57 µM
same,GI50,[10],1.86 µM
same,TGI,[10],3.39 µM and 3.3 µM
same,GI50,[11],1.3 µM
same,TGI,[11],3.21 µM and 2.4 µM
same,GI50,[12],1.96 µM
same,TGI,[12],10.8 µM and 16.2 µM
same,GI50,[13],1.64 µM
same,TGI,[13],6.93 µM and 5.11 µM
same,TGI,[14],10.7 µM
same,TGI,[15],3.79 µM and 3.3 µM
same,TGI,[16],3.55 µM
same,TGI,[17],2.95 µM
same,TGI,[18],11.8 µM and 13 µM
same,TGI,[19],3.1 µM
same,GI50,[20],2.35 µM
same,TGI,[20],6.66 µM and 3.05 µM
same,TGI,[21],3.43 µM and 3.38 µM
same,GI50,[22],2.17 µM
same,TGI,[22],4.84 µM and 6.51 µM
same,TGI,[23],6.89 µM and 9.8 µM
same,TGI,[24],3.97 µM and 2.57 µM
same,TGI,[25],5.05 µM and 3.74 µM
same,TGI,[26],3 µM
same,GI50,[27],1.55 µM
same,TGI,[27],3.51 µM and 2.4 µM
same,TGI,[28],2.97 µM
same,GI50,[29],1.88 µM
same,TGI,[29],4.15 µM and 4.77 µM
same,GI50,[30],1.59 µM
same,TGI,[30],7.16 µM and 9.28 µM
same,GI50,[31],1.61 µM
same,TGI,[31],7.18 µM and 5.67 µM
same,TGI,[32],4.11 µM and 3.27 µM
same,GI50,[33],2.33 µM
same,TGI,[33],8.04 µM and 10.7 µM
same,GI50,[34],1.99 µM
same,TGI,[34],4.37 µM and 4.5 µM
same,GI50,[35],2.59 µM
same,TGI,[35],7.01 µM and 5.68 µM
same,TGI,[36],2.9 µM and 2.69 µM
same,GI50,[37],1.48 µM
same,TGI,[37],7.62 µM and 5.45 µM
same,TGI,[38],5.03 µM and 7.68 µM
same,TGI,[39],3.14 µM
same,TGI,[40],3.17 µM
same,GI50,[41],1.42 µM
same,TGI,[41],5.15 µM and 9.77 µM
same,TGI,[42],11.5 µM
same,TGI,[43],3.68 µM and 3.64 µM
same,TGI,[44],3.36 µM and 3.39 µM
same,TGI,[45],5.74 µM and 5.11 µM
same,GI50,[46],1.23 µM
same,TGI,[46],5.64 µM and 5.73 µM
same,GI50,[47],2.34 µM
same,TGI,[47],6.45 µM and 4.75 µM
same,TGI,[48],3.12 µM
same,GI50,[49],2.39 µM
same,TGI,[49],7.83 µM and 5.14 µM
same,TGI,[50],2.53 µM
same,GI50,[51],2.24 µM
same,TGI,[51],9.19 µM and 5.73 µM
same,GI50,[52],0.863 µM
same,TGI,[52],4.34 µM and 2.52 µM
same,TGI,[53],4.39 µM
same,TGI,[54],3.1 µM
same,GI50,[55],2.26 µM
same,TGI,[55],9.69 µM and 7.81 µM
same,GI50,[56],2.46 µM
same,TGI,[56],8.27 µM and 14.8 µM
same,GI50,[57],2.69 µM
same,TGI,[57],10.3 µM and 12.6 µM
same,GI50,[58],1.18 µM
same,TGI,[58],8.55 µM and 4.35 µM
same,GI50,[59],1.81 µM
same,TGI,[59],9.64 µM and 10.7 µM
same,GI50,[60],2.28 µM
same,TGI,[60],6.37 µM
same,GI50,[61],1.38 µM
same,TGI,[61],5.79 µM and 4.31 µM
same,TGI,[62],2.04 µM
same,GI50,[63],1.86 µM
same,TGI,[63],6 µM and 5.02 µM
same,TGI,[64],3.29 µM and 3.4 µM
same,TGI,[65],4.16 µM
same,TGI,[66],3.95 µM
same,GI50,[67],1.61 µM
same,TGI,[67],3.98 µM and 8.04 µM
same,TGI,[68],3.08 µM and 2.79 µM
